This note sets out measurements from patent US6984649B1, “Pyridine derivatives” (Bayer Aktiengesellschaft, priority 2000, dated 2006).

Structures can show the parent of a compound that is named as a salt.

Broadly, the IC50 is the midpoint of a concentration-inhibition curve.

The assay relates to A549 human lung epithelium cell line. Nature of the assay: RANTES production in response to TNF-α from A549 cells. Type of assay: cell-based. As to conditions: Homo sapiens, A549, A549 cells, 100 ng/ml TNF-α, read-out: Cellular activity grade (A549) (Cellular IC50). How it is done:
[The Measurement of RANTES Production in Response to TNF-α from A549 Cells]
(1) Preparation of A549 Cells
• The A549 human lung epithelium cell line (ATCC […]) was maintained in Dulbecco's modified Eagle's medium (D-MEM, Nikken Biomedical Institute) supplemented with 10% FCS (Gibco), 100 U/ml penicillin, 100 μg/ml streptomycin, and 2 mM glutamine (culture medium). Forty thousand (4×10^4) cells (80 μl/well) were seeded in each well of 96 well flat-bottom tissue culture plate (Falcon #3072). The plate was allowed to stand for 2 hrs, thus the cells were adhered to the bottom of each well. To the each well was added 10 μl vehicle (1% DMSO), serial dilutions of test compounds in 1% DMSO, or 5 nM Dexamethasone in 1% DMSO as a reference. The mixture (90 μl/well) was incubated for 1 hr at 37° C. After 1 hr, 1 μg/ml TNF-α (10 μl) in culture medium was added to the mixture to obtain 100 μl of reaction mixture. The reaction mixture was cultured for 24 hrs to stimulate the cells with 100 ng/ml TNF-α. Cells with vehicle without TNF-α stimulation were also prepared. (2) Measurement of RANTES Production • Then the concentration of RANTES released from the cells in the supernatants of each well was determined using a quantitative sandwich enzyme immunoassay technique. First, 2 μg/ml mouse anti-huRANTES mAb (R&D Systems, #mAb678) in PBS buffer (pH 7.4, 100 μl) was put in each well of 96-well NUNC fluoro plate (Nalge Nunc, New York USA) (Final 200 ng/well) and the plate was allowed to stand for overnight at 4° C. to be coated by the antibody. Each well of the plate was then washed with 350 μl wash buffer (0.05% Tween-20, 0.85% NaCl, and 25 mM Tris/HCl pH7.4) for three times. Blocking buffer containing 1% BSA (Sigma 99% pure, 100 g), 5% sucrose (Nacalai tesque, 99% pure, 500 g), and 0.02% azide (Nacalai tesque, 100%, 500 g) were added (200 μl) to each well and then the plate was allowed to stand for 4 hours to stabilize the coated antibody. Next, 50 μl supernatants of cell culture prepared in (1) above were put in each well of the 96-well NUNC fluoro plate with coated antibody. Recombinant Human RANTES (Pepro Tech, Inc. #300-06) was used as the standard for the determination of RANTES production (linear range between 1 and 10 ng/ml). Eu-labelled mouse anti-huRANES mAb (60 ng/ml: R&D Systems, #mAb278) in PBS supplemented by 1% BSA and 0.05% Tween 20 was added (50 μl) to each well. The reaction mixtures were incubated at room temperature for 4 hrs. After washing with wash buffer (0.05% Tween-20, 0.85% NaCl, and 25 mM Tris/HCl pH7.4, 350 μl/well) for 5 times with the use of a Sera Washer (Bio-Tech, #MW-96R), the enhancement solution (DELFIA, #1244-405, 100 μl/well) was added to each well. The plate was incubated for 10 minutes at room temperature with moderate shaking. Fluorescent intensity was measured using a DELFIA fluorimeter (Wallac). Excitation was performed at 340 nm and emission was measured at 615 nm. [The Measurement of TNF-α Production in Response to LPS from Peripheral Blood Mononuclear Cells (PBMC)] (1) Preparation of PBMC • Human PBMC were prepared by first obtaining blood from healthy donors and isolating the cells from the blood. The isolation was done by Ficoll gradient-centrifugation method using Ficoll Pacque (Pharmacia #17-1440-02). Within three hours from donation, the isolated PBMC was used. After three times washing with PBS, PBMC were resuspended with RPMI 1640 (Nikken BioMedical Institute) supplemented with 10% FCS (Gibco), 100 U/ml penicillin, 100 μg/ml streptomycin, and 2 mM glutamine (culture medium). The cells (1×10^5 in 150 μL/well) were seeded in each well of 96 well flat-bottom tissue culture plate (Falcon #3072). To the each well was added 20 μl vehicle (1% DMSO), serial dilutions of test compounds in 1% DMSO, or 250 nM Dexamethasone in 1% DMSO as a reference. The mixture (170 μl/well) was incubated for 1 hr at 37° C. After 1 hr, 20 ng/ml LPS (30 μl) in culture medium was added to the mixture to obtain 200 μl of reaction mixture. […]
On to `Nc1nc(-c2ncccc2O)cc(C2CCCNC2)c1CO` (stereo not drawn) [Example 11-3, 6′-amino-5′-(hydroxymethyl)-4′-3-piperidinyl)-2,2′-bipyridin-3-ol hydrochloride], for which the IC50 is under 1000 nM.

Consider `Nc1nc(-c2c(O)cccc2OCC2CC2)cc(C2CCCNC2)c1CO` (stereo not drawn) [Example 12-1, 2-[6-amino-5-(hydroxymethyl)-4-(3-piperidinyl)-2-pyridinyl]-3-(cyclopropylmethoxy)phenol hydrochloride], for which the IC50 is under 1000 nM.

Turning to `NC(=O)c1c(C2CCCNC2)cc(-c2ccccc2O)nc1N` (stereo not drawn) [Example 7-1, 2-amino-6-(2-hydroxyphenyl)-4-(3-piperidinyl)nicotinamide hydrochloride], the IC50 is 1000 to 10000 nM.

For the compound `Nc1nc(-c2c(O)cccc2OCc2ccccc2)cc2c1CN1CCCC2C1` (stereo not drawn) [Example 20-1, 2-(6-amino-5,9-diazatricyclo[7.3.1.02,7]trideca-2,4,6-trien-4-yl)-3-(benzyloxy)phenol hydrochloride], the IC50 is over 10000 nM.

With `Nc1nc(-c2c(O)cccc2OCC2CC2)cc(C2CCNCC2)c1Cn1ccnc1` [Example 21-2, 2-[6-amino-5-(1H-imidazol-1-ylmethyl)-4-(4-piperidinyl)-2-pyridinyl]-3-(cyclopropylmethoxy)phenol hydrochloride], the IC50 was under 1000 nM.

For `Oc1cccc(OCC2CC2)c1-c1cc(C2CCCNC2)c2c(n1)NCOC2` (stereo not drawn) [Example 17-1, 3-(cyclopropylmethoxy)-2-[5-(3-piperidinyl)-1,4-dihydro-2H-pyrido[2,3-d][1,3]oxazin-7-yl]-phenol hydrochloride], the IC50 was under 1000 nM.

As for `O=C1NCc2c(C3CCCNC3)cc(-c3c(O)cccc3OCC3CC3)nc2N1` (stereo not drawn) [Example 22-2, 7-[2-(cyclopropylmethoxy)-6-hydroxyphenyl]-5-(3-piperidinyl)-3,4-dihydro-1H-pyrido[2,3-d]-pyrimidin-2-one hydrochloride], the IC50 is under 1000 nM.

On to `CC(=O)Nc1cccc(O)c1-c1cc(C2CCCNC2)c(C#N)c(N)n1` (stereo not drawn) [Example 1-12, N-{2-[6-amino-5-cyano-4-(3-piperidinyl)-2-pyridinyl]-3-hydroxyphenyl}acetamide hydrochloride], for which the IC50 is over 10000 nM.

As to `CC1OC(=O)Nc2nc(-c3ccccc3O)cc(C3CCCNC3)c21` (stereo not drawn) [Example 18-3, hydrochloride], the IC50 is 1000 to 10000 nM.

Consider `N#Cc1c(C2CCNCC2)cc(-c2c(O)cccc2OCC2CC2)nc1N` [Example 2-3, hydrochloride], for which the IC50 was under 1000 nM.

Consider `CCCNc1nc(-c2ccccc2O)cc(C2CCCNC2)c1C#N` (stereo not drawn) [Example 4-2, 6-(2-hydroxyphenyl)-4-(3-piperidinyl)-2-(propylamino)nicotinonitrile hydrochloride], for which the IC50 was over 10000 nM.

`Nc1ncnc2nc(-c3c(O)cccc3OCC3CC3)cc(C3CCCNC3)c12` (stereo not drawn) [Example 32-1, 2-[4-amino-5-(3-piperidinyl)pyrido[2,3-d]pyrimidin-7-yl]-3-(cyclopropylmethoxy)phenol hydrochloride]: the IC50 lay in the range of 1000 to 10000 nM.

Consider `N#Cc1c(C2CCCNC2)cc(-c2c(O)cccc2OCc2ccccc2)nc1N` (stereo not drawn) [Example 2-2, 2-amino-6-[2-(benzyloxy)-6-hydroxyphenyl]-4-(3-piperidinyl)nicotinonitrile hydrochloride], for which the IC50 was under 1000 nM.

Regarding `Nc1cc2c(C3CCCNC3)cc(-c3c(O)cccc3OCC3CC3)nc2[nH]c1=O` (stereo not drawn) [Example 29-01, 3-amino-7-[2-(cyclopropylmethoxy)-6-hydroxyphenyl]-5-(3-piperidinyl)-1,8-naphthyridin-2(1H)-one hydrochloride], the concentration for half-maximal inhibition (IC50) was under 1000 nM.

Turning to `CC(=O)Nc1nc(-c2ccccc2O)cc(C2CCCNC2)c1C#N` (stereo not drawn) [Example 6-1, N-[3-cyano-6-(2-hydroxyphenyl)-4-(3-piperidinyl)-2-pyridinyl]acetamide hydrochloride], the IC50 fell in the range of 1000 to 10000 nM.

For `Nc1n[nH]c2nc(-c3ccccc3O)cc(C3CCCNC3)c12` (stereo not drawn) [Example 5-1, 2-[3-amino-4-(3-piperidinyl)-1H-pyrazolo[3,4-b]pyridin-6-yl]phenol hydrochloride], the IC50 was in the range of 1000 to 10000 nM.

Take `N#Cc1c(C2CCCNC2)cc(-c2c(O)cccc2NCc2ccccc2)nc1N` (stereo not drawn) [Example 1-11, 2-amino-6-[2-(benzylamino)-6-hydroxyphenyl]-4-(3-piperidinyl)nicotinonitrile hydrochloride]: the IC50 is over 10000 nM.

In the case of `Nc1nc(-c2c(O)cccc2OCC2CC2)cc(C2CCCNC2)c1CNC(=O)NC1CCCCC1` (stereo not drawn) [Example 23-3, N-{[2-amino-6-[2-(cyclopropylmethoxy)-6-hydroxyphenyl]-4-(3-piperidinyl)-3-pyridinyl]methyl}-N′-cyclohexylurea hydrochloride], the IC50 is under 1000 nM.

With `CCOC(=O)NCc1c(C2CCCNC2)cc(-c2c(O)cccc2OCC2CC2)nc1N` (stereo not drawn) [Example 23-2, ethyl [2-amino-6-[2-(cyclopropylmethoxy)-6-hydroxyphenyl]-4-(3-piperidinyl)-3-pyridinyl]methylcarbamate hydrochloride], the IC50 is under 1000 nM.

For the compound `Nc1nc(-c2ccccc2O)cc2c1CN[C@@H]2Cc1ccccc1` [Example 20-2, 2-[(1R)-4-amino-1-benzyl-2,3-dihydro-1H-pyrrolo[3,4-d]pyridin-6-yl]phenol hydrochloride], the IC50 was in the range of 1000 to 10000 nM.

Turning to `CC(C)(C)OC(=O)c1c(C2CCCNC2)cc(-c2ccccc2O)nc1N` (stereo not drawn) [Example 9-1, tert-butyl 2-amino-6-(2-hydroxyphenyl)-4-(3-piperidinyl)nicotinate hydrochloride], the IC50 lay in the range of 1000 to 10000 nM.

As for `CC(=O)Nc1cc2c(C3CCCNC3)cc(-c3c(O)cccc3OCC3CC3)nc2[nH]c1=O` (stereo not drawn) [Example 29-3, N-[7-[2-(cyclopropylmethoxy)-6-hydroxyphenyl]-2-oxo-5-(3-piperidinyl)-1,2-dihydro-1,8-naphthyridin-3-yl]acetamide hydrochloride], the IC50 is under 1000 nM.

Turning to `CCCNC(=O)c1cc2c(C3CCCNC3)cc(-c3c(O)cccc3OCC3CC3)nc2[nH]c1=O` (stereo not drawn) [Example 31-1, 7-[2-(cyclopropylmethoxy)-6-hydroxyphenyl]-2-oxo-5-(3-pipedinyl)-N-propyl-1,2-dihydro-1,8-naphthyridine-3-carboxamide], the IC50 is under 1000 nM.

Turning to `CNC(=O)c1c(C2CCCNC2)cc(-c2c(O)cccc2OCC2CC2)nc1N` (stereo not drawn) [Example 8-3, 2-amino-6-[2-(cyclopropylmethoxy)-6-hydroxyphenyl]-N-methyl-4-(3-piperidinyl)nicotinamide hydrochloride], the IC50 is under 1000 nM.

As for `CC(=O)Nc1n[nH]c2nc(-c3ccccc3O)cc(C3CCCNC3)c12` (stereo not drawn) [Example 5-2, N-[6-(2-hydroxyphenyl)-4-(3-piperidinyl)-1H-pyrazolo[3,4-b]pyridin-3-yl]acetamide hydrochloride], the IC50 is over 10000 nM.

For the compound `COCc1c(C2CCCNC2)cc(-c2ccccc2O)nc1N` (stereo not drawn) [Example 13-1, 2-[6-amino-5-(methoxymethyl)-4-(3-piperidinyl)-2-pyridinyl]phenol hydrochloride], the IC50 is under 1000 nM.

Regarding `N#Cc1c(C2CCCNC2)cc(-c2c(O)cccc2O)nc1N` (stereo not drawn) [Example 2-1, 2-amino-6-(2,6-dihydroxyphenyl)-4-(3-piperidinyl)nicotinonitrile hydrochloride], the IC50 was under 1000 nM.
